Test results from PMC3534865 (Bioorganic & medicinal chemistry letters, 2012).
Entries after “also recorded” stand apart in the source; their conditions may differ.

Assays:
human M1 (hM1) [1] = target: T1, human M1 (hM1) (Homo sapiens, UniProt P11229); experiment: hM1 PAM functional; format: cell-based; settings: for efficacy (% AChmax) compared with ML137: at the highest concentration tested of 30 μM; for hM1 PAM activity: tested up to 30 μM; for pEC50: Table 2, hM1, mean ± SEM
T1 sequence (P11229 1-460): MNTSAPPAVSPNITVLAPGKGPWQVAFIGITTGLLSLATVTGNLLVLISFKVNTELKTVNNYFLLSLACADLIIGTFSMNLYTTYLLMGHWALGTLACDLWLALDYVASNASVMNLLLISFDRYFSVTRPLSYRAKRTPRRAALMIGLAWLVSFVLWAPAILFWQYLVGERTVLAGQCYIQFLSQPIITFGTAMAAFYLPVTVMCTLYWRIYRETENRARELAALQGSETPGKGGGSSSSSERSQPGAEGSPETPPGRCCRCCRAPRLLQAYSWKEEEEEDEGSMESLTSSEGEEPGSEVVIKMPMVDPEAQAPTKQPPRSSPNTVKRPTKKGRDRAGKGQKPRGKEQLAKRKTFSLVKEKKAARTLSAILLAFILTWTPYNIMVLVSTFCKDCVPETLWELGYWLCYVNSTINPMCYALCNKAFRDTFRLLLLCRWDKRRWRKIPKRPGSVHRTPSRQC

[2] = tested on: human muscarinic receptor subtypes; format: cell-based; settings: hM1 over the other muscarinic receptor subtypes; Figure 4
hM1 = target: T2, hM1 (Homo sapiens, UniProt P11229); experiment: ACh fold-shift experiment; format: cell-based; settings: ML137 to 14
T2 sequence (P11229 1-460): T1 sequence (P11229 1-460)

[3] = Chemical stability observation; format: physicochemical; settings: presumed air oxidation or self-condensation
human M1 (hM1) [4] = target: T1, human M1 (hM1); settings: cited from earlier work

Structure (SMILES) | hM1 PAM activity (human M1 (hM1) [1]) | other results
Cn1cc(-c2ccc(CN3c4ccccc4CS3(=O)=O)c(F)c2)cn1 [Compound 13] |  | efficacy (% AChmax) compared with ML137 (human M1 (hM1) [1]): comparable efficacy
Cn1cc(-c2ccc(CN3C(=O)Cc4ccccc43)c(F)c2)cn1 [Compound 14] |  | muscarinic receptor subtype selectivity [2]: little-to-no erosion of muscarinic subtype selectivity; also recorded: very selective for the hM1 receptor; decrease in hM1 PAM EC50 (potency) relative to ML137 (human M1 (hM1) [1]; ML137 to 14): 4 fold; efficacy (% AChmax) compared with ML137 (human M1 (hM1) [1]): comparable efficacy; improvement in ACh fold-shift relative to ML137 (hM1): 10 fold
Cn1cc(-c2ccc(Cn3c(=O)[nH]c4ccccc43)c(F)c2)cn1 [Compound 15] | not tolerated | 
Cn1cc(-c2ccc(CN3CCc4ccccc43)c(F)c2)cn1 [Compound 16] | not tolerated | 
CC(=O)N(Cc1ccc(-c2cnn(C)c2)cc1F)c1ccccc1 [Compound 17] | inactive | 
Cn1cc(-c2ccc(CN3C(=O)c4cccc5cccc3c45)c(F)c2)cn1 [Compound 18] | detrimental to activity | 
Cn1cc(-c2ccc(CN3C(=O)C(N)c4ccccc43)c(F)c2)cn1 (stereo not shown) [Compound 23b] |  | chemical stability [3]: undesirable level of chemical instability; increase in hM1 potency over 14 (human M1 (hM1) [1]; ratio of EC50 vs 14): 2 fold
CN(C)C1(C)C(=O)N(Cc2ccc(-c3cnn(C)c3)cc2)c2ccccc21 (stereo not shown) [Compound 23d] | weakly active | 
Cn1cc(-c2ccc(CN3C(=O)C(C)(O)c4ccccc43)c(F)c2)cn1 (stereo not shown) [Compound 23e] |  | chemical stability [3]: stable
CCCn1cc(-c2ccc(CN3C(=O)C(O)(C(F)(F)F)c4ccccc43)c(F)c2)cn1 (stereo not shown) [Compound 23k] | complete loss of activity | 
O=C1N(Cc2ccc(-c3cn[nH]c3)cc2F)c2ccccc2C1(O)C(F)(F)F (stereo not shown) [Compound 23m] | complete loss of activity | 
Cn1cc(-c2ccc(Cn3ccccc3=O)c(F)c2)cn1 [Compound 24d] | loss of all PAM activity | 
Cn1cc(-c2ccc(CN3C(=O)COc4ccccc43)c(F)c2)cn1 [Compound 24e] |  | pEC50 (human M1 (hM1) [1]): 5.29 ± 0.09
Cn1cc(-c2ccc(CN3C(=O)CSc4ccccc43)c(F)c2)cn1 [Compound 24h] |  | pEC50 (human M1 (hM1) [1]): 5.49 ± 0.12
Cn1cc(-c2ccc(CN3CCSc4ccccc43)c(F)c2)cn1 [Compound 24k] | no activity at all | 
Cn1cc(-c2ccc(CN3C(=O)C(=O)c4ccccc43)c(F)c2)cn1 [ML137] |  | %AChmax previously reported (human M1 (hM1) [4]): 65%

The next lines start with results.

hM1 PAM activity (human M1 (hM1) [1]) | Structure (SMILES) | other results
weakly active | Cn1cc(-c2ccc(CN3C(=O)C(C)(N)c4ccccc43)c(F)c2)cn1 (stereo not shown) [Compound 23c] | 
complete loss of activity | CC(C)n1cc(-c2ccc(CN3C(=O)C(O)(C(F)(F)F)c4ccccc43)c(F)c2)cn1 (stereo not shown) [Compound 23l] | 
